Measured values as given in patent publication US20170107203A1, “HETEROCYCLIC INHIBITORS OF THE SODIUM CHANNEL” (EPIRUS BIOPHARMACEUTICALS, INC., priority 2014, published 2017).
Read-outs that look alike come from different tables or passages of the source.

Columns and labels:
human Nav1.7 = target: T1, human Nav1.7 (Homo sapiens, UniProt Q15858); assay: Assessment of Nav1.7 activity on PatchXpress (voltage dependence / slow inactivation parameters); type: cell-based; conditions: compound at 10 μM, relative to 0.2% DMSO vehicle control; for hNav1.7: Reduction in current at 20 mV (normalized data) Delta Ratio: before/after 30 sec conditioning pulse at 20 mV; for hNav1.7: Shift in voltage dependence of inactivation (mV) Delta Vhalf: PatchXpress
T1 construct: expressed in transfected cells
Summary of the method: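 HEK293F cells stably co-expressing hNav1.7 and β1 were recorded by automated patch clamp in TEA-based external solution (50 mM NaCl, pH 7.4) with CsF internal solution (pH 7.2). A variable conditioning prepulse inactivated channels, followed by a brief hyperpolarizing step and a depolarizing test pulse. Compounds at 10 μM were compared with 0.2% DMSO vehicle across four parameters.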

hNav1.7 = target: T2, hNav1.7 (Homo sapiens, UniProt Q15858); assay: Nav1.7 potency, Patchliner automated patch clamp; type: cell-based; conditions: automated patchclamp
T2 construct: expressed in transfected cells
Method: The generation of a HEK 293F cell line stably expressing human Nav1.7/Navp1 was achieved by co-transfecting human SCN9A and human SCN1B cDNAs, subcloned into plasmid vectors, utilizing standard transfection techniques. Clones were selected using appropriate selection agents (0.3 mg/mL Zeocin and 0.8 mg/mL Geneticin) and maintained in Dulbecco's Modified Eagle medium, 10% fetal bovine serum, 1% non-essential amino acids to ˜80% confluence at 37° C. in a humidified incubator with 95% atmosphere and 5% CO2.
In some cases, the potency of compounds was measured using either the Patchliner automated patch clamp platform (Nanion) or manual patch clamp techniques. Both approaches allowed the compounds to be characterized based upon the ability of a compound to modulate use- and/or state-dependence. The potency data is tabulated in Table 3 and is represented by eight data fields. The first four fields represent potency data measured with the Patchliner automated platform under varying use- and state-dependent electrophysiology protocols similar to the Patch express protocols detailed above. The first data column describes the potency of compounds when the Nav1.7 channel is being repetitively activated at a 7 Hz hyperpolarization frequency (Table 3: hNav1.7: IC50 of inward current block at 7 Hz, Automated patchclamp). The second data column represents the potency at which 50% of the initial hyperpolarization pulse is inhibited by the compounds (Table 3: hNav1.7: IC50 of P1 block, Automated patchclamp). The third data column details the potency of compounds in their ability to block 50% of Nav1.7 channels when these channels are induced into the slow inactivated state (Table 3: hNav1.7: IC50 of slow inactivation block, Automated patchclamp). […] The next three data fields describe the data generated from manual patchclamp electrophysiology measurements using similar methods to those employed for automated patchclamp studies. […] The last column characterizes the state-dependence of compound inhibition. Compounds that maintain the greatest potency for the slow inactivated state over fast inactivated or tonic inhibition at 0.25 Hz are characterized as “state dependent, blocker of slow inactivation”.

[1] = 7 Hz, read-out: Nav1.7 IC50 INWARD CURRENT BLOCK (nM) (7 Hz, Automated Patchclamp)
[2] = initial pulse (P1), read-out: Nav1.7 IC50 P1 BLOCK (nM) (Automated Patchclamp)
[3] = slow inactivated state, read-out: Nav1.7 IC50 SLOW INACTIVATION BLOCK (nM) (Automated Patchclamp)

T1 sequence (Q15858 whole entry): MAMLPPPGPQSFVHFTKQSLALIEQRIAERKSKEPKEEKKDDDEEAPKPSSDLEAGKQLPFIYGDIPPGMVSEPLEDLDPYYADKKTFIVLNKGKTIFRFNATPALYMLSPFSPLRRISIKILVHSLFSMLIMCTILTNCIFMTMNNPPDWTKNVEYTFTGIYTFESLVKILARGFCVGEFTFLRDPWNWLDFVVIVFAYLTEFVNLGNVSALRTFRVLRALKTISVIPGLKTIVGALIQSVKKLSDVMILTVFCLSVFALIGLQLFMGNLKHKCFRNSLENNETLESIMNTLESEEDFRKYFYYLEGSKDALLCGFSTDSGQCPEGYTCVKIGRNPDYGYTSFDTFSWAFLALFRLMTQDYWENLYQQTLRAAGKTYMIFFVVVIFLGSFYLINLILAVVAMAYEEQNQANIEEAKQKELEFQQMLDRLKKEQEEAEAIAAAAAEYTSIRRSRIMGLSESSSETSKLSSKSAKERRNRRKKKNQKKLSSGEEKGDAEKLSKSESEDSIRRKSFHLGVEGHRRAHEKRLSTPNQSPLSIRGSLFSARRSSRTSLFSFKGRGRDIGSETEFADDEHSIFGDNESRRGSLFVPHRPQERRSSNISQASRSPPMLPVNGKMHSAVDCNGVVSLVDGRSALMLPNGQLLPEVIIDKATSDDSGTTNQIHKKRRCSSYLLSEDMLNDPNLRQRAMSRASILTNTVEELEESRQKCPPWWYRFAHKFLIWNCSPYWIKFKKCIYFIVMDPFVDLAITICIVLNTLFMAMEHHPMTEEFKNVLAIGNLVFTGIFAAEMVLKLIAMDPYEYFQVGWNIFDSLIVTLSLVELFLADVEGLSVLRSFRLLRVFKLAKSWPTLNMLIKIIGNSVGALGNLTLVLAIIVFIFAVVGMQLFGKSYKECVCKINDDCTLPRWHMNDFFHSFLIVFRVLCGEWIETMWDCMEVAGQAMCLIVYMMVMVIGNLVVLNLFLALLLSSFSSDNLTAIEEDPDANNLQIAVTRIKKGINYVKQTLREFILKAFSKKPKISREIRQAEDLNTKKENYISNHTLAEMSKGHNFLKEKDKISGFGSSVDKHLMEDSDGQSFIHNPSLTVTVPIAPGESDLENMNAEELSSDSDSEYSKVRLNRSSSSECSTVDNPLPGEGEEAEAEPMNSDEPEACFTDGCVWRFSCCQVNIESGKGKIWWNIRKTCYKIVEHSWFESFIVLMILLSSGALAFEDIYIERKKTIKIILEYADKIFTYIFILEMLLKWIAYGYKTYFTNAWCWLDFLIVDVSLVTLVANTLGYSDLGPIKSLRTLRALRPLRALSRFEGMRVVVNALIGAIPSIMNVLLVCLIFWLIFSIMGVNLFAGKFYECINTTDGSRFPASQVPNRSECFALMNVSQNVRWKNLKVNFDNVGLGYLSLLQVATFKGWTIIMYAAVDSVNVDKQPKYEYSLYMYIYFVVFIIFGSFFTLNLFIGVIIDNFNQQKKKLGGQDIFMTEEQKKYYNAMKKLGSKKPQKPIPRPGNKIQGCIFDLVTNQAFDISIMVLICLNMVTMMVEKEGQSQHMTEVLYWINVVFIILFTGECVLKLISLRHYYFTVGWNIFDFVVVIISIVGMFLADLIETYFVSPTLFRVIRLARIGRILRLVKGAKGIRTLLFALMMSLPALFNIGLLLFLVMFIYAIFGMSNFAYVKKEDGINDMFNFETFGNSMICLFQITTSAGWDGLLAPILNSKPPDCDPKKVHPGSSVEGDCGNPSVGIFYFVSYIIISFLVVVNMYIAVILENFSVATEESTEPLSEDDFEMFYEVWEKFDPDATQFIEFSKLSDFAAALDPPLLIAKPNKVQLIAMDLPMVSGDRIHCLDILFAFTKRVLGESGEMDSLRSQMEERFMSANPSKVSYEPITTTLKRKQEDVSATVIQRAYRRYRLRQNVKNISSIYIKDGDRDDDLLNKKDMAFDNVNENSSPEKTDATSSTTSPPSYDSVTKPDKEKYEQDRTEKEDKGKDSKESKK
T1 sequence (Q07699 19-218 partner): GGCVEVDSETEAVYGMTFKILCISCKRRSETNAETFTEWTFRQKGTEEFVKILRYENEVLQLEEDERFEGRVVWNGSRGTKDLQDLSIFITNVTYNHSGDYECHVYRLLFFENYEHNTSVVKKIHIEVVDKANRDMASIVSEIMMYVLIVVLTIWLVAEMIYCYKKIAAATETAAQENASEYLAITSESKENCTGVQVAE
T2 sequence (Q15858 whole entry): as the sequence (Q15858 whole entry) above
T2 sequence (Q07699 19-218 partner): as the sequence (Q07699 19-218 partner) above

SMILES	hNav1.7: Reduction in current at 20 mV (normalized data) Delta Ratio (human Nav1.7)	hNav1.7: Voltage dependence of activation (mV) VDEP (human Nav1.7)	hNav1.7: Voltage dependence of fast inactivation (mV) VDEP (human Nav1.7)	hNav1.7: Shift in voltage dependence of inactivation (mV) Delta Vhalf (human Nav1.7)	IC50 (hNav1.7; [1])	IC50 (hNav1.7; [2])	IC50 (hNav1.7; [3])
CC(C)CC(N)C(=O)N[C@@H](C)COc1cc(C(F)(F)F)cc(C(F)(F)F)c1 (stereo partly drawn) [Compound 10, 2-amino-N-((S)-1-(3,5-bis(trifluoromethyl)phenoxy)propan-2-yl)-4-methylpentanamide]	−0.20	−3.70 mV	−3.50 mV	−31.40 mV	1890 nM	11500 nM	4120 nM
CC(C)C[C@@H](N)C(=O)NC(C)COc1cc(C(F)(F)F)cc(C(F)(F)F)c1 (stereo partly drawn) [Compound 6, (2R)-2-amino-N-(1-(3,5-bis(trifluoromethyl)phenoxy)propan-2-yl)-4-methylpentanamide]	−0.25	−4.80 mV	−6.20 mV	−32.70 mV	1660 nM	12700 nM	2770 nM
CC(C)C[C@H](N)CC(=O)NCCOc1cc(F)cc(C(F)(F)F)c1 [Compound 18, (S)-3-amino-N-(2-(3-fluoro-5-(trifluoromethyl)phenoxy)ethyl)-5-methylhexanamide]	−0.09	−2.60 mV	−3.90 mV	−11.90 mV	–	–	–
NCC[C@@H]1Nc2c(cc(C(F)(F)F)cc2C(F)(F)F)NC1=O [Compound 39, (S)-3-(2-aminoethyl)-5,7-bis(trifluoromethyl)-3,4-dihydroquinoxalin-2(1H)-one]	−0.08	−7.40 mV	−3.10 mV	−4.90 mV	–	–	–
C[C@@H](NC(=O)[C@H]1CCCN1)c1ccc(OCC(F)(F)F)cn1 [Compound 83, (R)-N-((R)-1-(5-(2,2,2-trifluoroethoxy)pyridin-2-yl)ethyl)pyrrolidine-2-carboxamide]	0.01	−3.1 mV	−0.5 mV	−1.5 mV	–	–	–
COC[C@@H]1C(=O)N(Cc2cc(C(F)(F)F)cc(C(F)(F)F)c2)CCN1C(C)=O [Compound 92, (R)-4-acetyl-1-(3,5-bis(trifluoromethyl)benzyl)-3-(methoxymethyl)piperazin-2-one]	0.01	−7.1 mV	−3.9 mV	−2.2 mV	–	–	–
N[C@H]1CCCC[C@H]1C(=O)NCCOc1cc(C(F)(F)F)cc(C(F)(F)F)c1 [Compound 8, (1R,2S)-2-amino-N-(2-(3,5-bis(trifluoromethyl)phenoxy)ethyl) cyclohexane-1-carboxamide]	−0.23	−7.80 mV	−6.80 mV	−16.40 mV	–	–	–
O=C1CNCCN1Cc1nc2cc(Br)ccc2[nH]1 [Compound 63, 1-((6-bromo-1H-benzo[d]imidazol-2-yl)methyl)piperazin-2-one]	−0.17	−8.1 mV	−6.4 mV	−9.7 mV	–	–	–
CC(C)CC(N)C(=O)N[C@H](COc1cc(C(F)(F)F)cc(C(F)(F)F)c1)c1ccccc1 (stereo partly drawn) [Compound 4, 2-amino-N-((S)-2-(3,5-bis(trifluoromethyl)phenoxy)-1-phenylethyl)-4-methylpentanamide]	−0.27	−5.80 mV	−11.50 mV	−31.10 mV	–	–	–
O=C(NCCOc1cc(C(F)(F)F)cc(C(F)(F)F)c1)[C@H]1CCCN1 [Compound 11, (R)-N-(2-(3,5-bis(trifluoromethyl)phenoxy)ethyl) pyrrolidine-2-carboxamide]	−0.20	−5.00 mV	−3.90 mV	−19.70 mV	–	–	–
CC(C)(C)OC(=O)N[C@H](Cc1cccc(C(F)(F)F)c1)C(=O)NCc1nc2c(C(F)(F)F)cc(C(F)(F)F)cc2[nH]1 [Compound 73, tert-butyl (R)-(1-(((4,6-bis(trifluoromethyl)-1H-benzo[d]imidazol-2-yl)methyl)amino)-1-oxo-3-(3-(trifluoromethyl)phenyl)propan-2-yl)carbamate]	−0.07	−12.5 mV	−5.4 mV	−3.7 mV	–	–	–
Cc1cccc(C)c1OCC(C)NC(=O)CN1CCNCC1=O (centres unmarked) [Compound 35, N-(1-(2,6-dimethylphenoxy)propan-2-yl)-2-(2-oxopiperazin-1-yl)acetamide]	−0.06	−7.40 mV	−4.40 mV	−3.00 mV	–	–	–
O[C@@H]1CN[C@H](c2nc3cc(C(F)(F)F)cc(C(F)(F)F)c3[nH]2)C1 [Compound 85, (3S,5S)-5-(5,7-bis(trifluoromethyl)-1H-benzo[d]imidazol-2-yl)pyrrolidin-3-ol]	0.03	−3.4 mV	−3.2 mV	0.3 mV	–	–	–
CC(C)(CN1CCNCC1=O)c1nc2cc(C(F)(F)F)cc(C(F)(F)F)c2[nH]1 [Compound 65, 1-(2-(4,6-bis(trifluoromethyl)-1H-benzo[d]imidazol-2-yl)-2-methylpropyl)piperazin-2-one]	−0.16	−8.1 mV	−6.2 mV	−3.5 mV	–	–	–
O=C(NCCc1c[nH]c2ccc(F)cc12)[C@@H]1CCCN1 [Compound 48, (S)-N-(2-(5-fluoro-1H-indol-3-yl)ethyl)pyrrolidine-2-carboxamide]	−0.01	−4.80 mV	−3.00 mV	−1.80 mV	–	–	–
N[C@H](Cc1cccc(C(F)(F)F)c1)C(=O)NCc1nc2c(C(F)(F)F)cc(C(F)(F)F)cc2[nH]1 [Compound 75, (R)-2-amino-N-((4,6-bis(trifluoromethyl)-1H-benzo[d]imidazol-2-yl)methyl)-3-(3-(trifluoromethyl)phenyl)propanamide]	−0.06	−15.4 mV	−3.7 mV	−2.3 mV	–	–	–
N[C@H](c1ccccc1)c1nc2cc(C(F)(F)F)cc(C(F)(F)F)c2[nH]1 [Compound 57, (R)-(4,6-bis(trifluoromethyl)-1H-benzo[d]imidazol-2-yl)(phenyl)methanamine]	−0.21	−4.7 mV	−4.8 mV	−10.4 mV	–	–	–
